Measurements as given in BigSolDB 2.1.

Cl.O=C(O)c1cn(-c2ccc(F)cc2)c2cc(N3CCNCC3)c(F)cc2c1=O
solubility (mole fraction)
Conditions	in DMF	in acetonitrile	in ethanol	in ethyl acetate	in isopropanol	in methanol	in n-butanol	in n-hexane
278.15 K	0.00136	0.00011	0.00019	0.0038	0.00047	0.00181	0.00148	0.00029
283.15 K	0.00148	0.00012	0.00022	0.00422	0.00059	0.00194	0.00162	0.00033
288.15 K	0.00164	0.00014	0.00025	0.00476	0.00072	0.00211	0.00179	0.00038
293.15 K	0.00183	0.00017	0.00029	0.00539	0.00083	0.00234	0.00202	0.00044
298.15 K	0.00205	0.0002	0.00033	0.00627	0.00098	0.00262	0.00224	0.00053
303.15 K	0.00232	0.00024	0.00037	0.00719	0.0011	0.00294	0.0025	0.00063
308.15 K	0.00259	0.00028	0.00043	0.00831	0.00123	0.0033	0.00281	0.00075
313.15 K	0.0029	0.00034	0.00049	0.00961	0.00134	0.00369	0.00312	0.00089
318.15 K	0.00324	0.0004	0.00056	0.0109	0.00147	0.00411	0.00344	0.00105
323.15 K	0.00359	0.00047	0.00064	0.0126	0.00161	0.00457	0.00379	0.0012
328.15 K	0.00397	0.00054	0.00072	0.0144	0.00172	0.00502	0.00419	0.00137
333.15 K	0.0044	0.00062	0.0008	0.0163	0.00185	0.00549	0.00463	0.00155
